“Also recorded” adds a separate entry of the source.
System: wild-type (WT) and PTN transgenic (TG) mice
Experiment: Novelty Suppressed Feeding Test after chronic fluoxetine treatment
Type: in vivo, mouse
Conditions: 4 weeks; for Latency to feed, treated versus untreated: fluoxetine in drinking water 160 mg/l, one-way ANOVA on rank-transformed data
Procedure: Novelty suppressed feeding test assesses anxiety and/or depression by measuring the latency of an animal to approach and eat food in a novel environment following chronic treatment with antidepressants. Mice (WT=14 and TG=14) were separated in two experimental groups: Without fluoxetine treatment and with fluoxetine treatment. The Fluoxetine was delivered ad libitum in the drinking water at a concentration of 160 mg/l (approximately doses of 20-25 mg/kg/day) during 4 weeks. Mice were weighed and food was removed from their cage. Twenty four hr after removal of food, mice were transferred to the testing room, placed in a clean holding cage and allowed to habituate for at least 30 min. The testing apparatus consisted of a clear Plexiglas open-field (50×50×25 cm) under an aversive condition (100 lux luminosity). The floor was covered with 2 cm of corncob bedding. A small piece of mouse chow was placed in the center of the arena. At the start of the experiment, each mouse was placed in the corner of the testing area, and the time to the first feeding event was recorded. After all mice from a single cage were tested, mice were returned to their home cage. A longer latency to feed reflects an anxiety-like behaviour. […] Measurement of Latency to feed were rank-transformed (Conover and Iman, 1981) and subjected to a Two-way ANOVA having two levels of genotype (wild-type or WT and transgenic or TG) and two levels of treatment (without fluoxetine or −Flx and with fluoxetine or +Flx).

CNCCC(Oc1ccc(C(F)(F)F)cc1)c1ccccc1 (stereo not shown) [Fluoxetine]
Sensitivity to the effect of fluoxetine, Tg compared with Wt (Novelty Suppressed Feeding Test, chronic treatment): more sensitive
Latency to feed, treated versus untreated (TG (PTN-overexpressing) mice): significant difference; also recorded: reversed
Latency to feed, main effect of treatment (two-way ANOVA) (WT and TG mice, fluoxetine in drinking water 160 mg/l (approx. 20-25 mg/kg/day), with vs without fluoxetine): significant
Latency to feed, treated versus untreated (WT mice): No significant differences

— patent US9398761B2, “Transgenic animal model of mood disorders” (BRAINCO BIOPHARMA, S.L., priority 2012, dated 2016)
